Measurements from publication PMC7822874, “Chemoprotective antimalarials identified through quantitative high-throughput screening of Plasmodium blood and liver stage parasites” (Scientific Reports, 2021).

These compounds were tested on Plasmodium falciparum Dd2 asexual blood stage parasites (assay: microbe, parasite or virus in culture). Settings: Plasmodium falciparum, DD2, Erythrocyte, 72 h.
Set-up: species or system Plasmodium falciparum Dd2 in human erythrocytes; single determination (one 11-point concentration-response curve)

SMILES | AC50 [µM]
Oc1cc2c(cc1CN1CCN(c3ccccc3)CC1)CCC2 [MLS000058156-01] | 3.35

Same assay, conditions: Plasmodium falciparum, DD2, Erythrocyte, 72 h; read-out: AC50

SMILES | AC50 [µM]
Cc1ccc(CN2COc3ccc4c(-c5ccccc5)cc(=O)oc4c3C2)cc1 [NCGC00116312-01] | 0.841
CN(C)CC1CSCCC1(O)c1ccccc1Cl (centres unmarked) [MLS000546783-01] | 5.96
COc1ccccc1-c1nnc2n1C(C(=O)NCCc1ccc(Cl)cc1)CC2 (centres unmarked) [NCGC00375512-01] | 3.35
O=C(NC1CC1)c1ccc(CSCc2cccc(F)c2)o1 [MLS000120194-01] | 8.41
CCOC(=O)c1cc(C)n(CC2CCC(C(=O)Nc3cccc(Cl)c3)CC2)c1C (centres unmarked) [NCGC00141645-01] | 8.41
CCCc1nnc(C[C@@H]2C[C@@H](C(C)C)[C@H](CN3CCC[C@H]3CO)C=C2C)o1 [NCGC00392769-01] | 17.2
Nc1ccc2oc(-c3ccc4[nH]cnc4c3)nc2c1 [MLS000121646-01] | 13.3
Cc1ccccc1NC(=O)c1c(NC(=O)c2ccco2)sc2c1CCC(C(C)(C)C)C2 (centres unmarked) [NCGC00099842-01] | 13.3
COc1ccc(-c2c(C#Cc3ccsc3)c3cc(-c4cccc5[nH]ccc45)ccc3n2C)cc1 [MLS002391587-01] | 6.68
COc1cncc(Nc2cnc3ccc(-c4ccc(OC)c(OC)c4)nn23)c1 [NCGC00412563-01] | 1.22
CCOC(=O)C1=C(C)NC(=O)CC1c1cc(OC)c(OC)cc1Br (centres unmarked) [MLS000723492-01] | 5.31
Cc1oc2ccc(O)c(CN3CCCCCC3)c2c1C(=O)Nc1cccc(Cl)c1C [NCGC00115685-01] | 0.841
C[C@]1(CO)[C@H]2Cc3sc(NC(=O)c4cccc(F)c4)nc3[C@@H](CC(=O)N3CCOCC3)[C@]2(C)CC[C@H]1O [NCGC00395198-01] | 8.41
COc1cc2c(cc1OCc1ccccc1)N([S+](=O)([O-])c1cccnc1)CC21CCN(C)CC1 [NCGC00419860-01] | 10.6
CC1=C[C@@H](CN2CCOCC2)[C@H](C(C)C)C[C@H]1Cc1nnc(-c2ccc([N+](=O)[O-])cc2)o1 [NCGC00394583-01] | 9.44
O=C(NCCN1CCCCC1)c1ccc(-c2nnc3ccc(NC(=O)C4CCC4)cn23)cc1 [NCGC00429914-01] | 13.3
Cc1ccc(-c2noc(-c3ccccc3NC(=O)C3CC(=O)N(c4ccc(C)cc4)C3)n2)cc1 (centres unmarked) [NCGC00119552-01] | 4.22
Cc1cc(C)c(CN2C(=O)c3ccccc3[S+](=O)([O-])c3ccc(C(=O)OCC4CCCO4)cc32)c(C)c1 (centres unmarked) [NCGC00127808-01] | 6.68
CC1(c2ccccc2)N(Cc2cccnc2)C(=O)OC12CCN(Cc1ccccc1)CC2 (centres unmarked) [NCGC00415633-01] | 17.2
Cn1cnc2ccc(-c3cccc(O)c3)nc2c1=O [NCGC00414672-01] | 6.11
CC1(c2ccccc2)CC(c2ccccc2)=Nc2nonc2N1 (centres unmarked) [MLS000079110-01] | 5.31
Cc1cc(C)c(CNC(=O)c2cc(-c3ccnn3C)cc3c2OCCN3C(C)C)c(=O)[nH]1 [NCGC00417130-01] | 15.3
Cc1ccc2nc(-c3ccccc3O)c(Nc3ccccc3C)n2c1 [NCGC00106804-01] | 2.37
COc1ccc(CCNC(=O)CCc2c(C)nc3c(c(C)nn3-c3ccc(C)c(C)c3)c2C)cc1OC [NCGC00110173-01] | 0.668
COc1cc(C)ccc1OCCSc1nc2ccc(NC(=O)c3cccs3)cc2s1 [NCGC00118564-01] | 13.3
CSc1cccc(NC(=O)Cn2c(-c3ccc(F)cc3)nc(C)c(CCO)c2=O)c1 [NCGC00470986-01] | 13.3

SMILES | AC50 [µM]
O=C(CN1CCC(n2nnc3cc(F)ccc32)CC1)Nc1ccccc1N1CCOCC1 [MLS000030185-01] | 5.31
CCOc1cc(C2CC(=O)NC3=C2C(=O)C(C(=O)OC)C(C)C3)cc(Br)c1O (centres unmarked) [MLS000090952-01] | 6.68
COc1ccc(C2c3ccc(O)cc3Oc3ncn4nc(-c5ccncc5)nc4c32)cc1OC (centres unmarked) [MLS000778948-01] | 15
COc1cc(CN2CC(=O)N(c3ccc(C)c(C)c3)C2=S)cc(OC)c1OC [MLS000583901-01] | 15
Cc1ccccc1N(C)C1CN(Cc2ccccc2)C1 [NCGC00476681-01] | 19.3
c1cnc(N2CCOCC2)c(OC2CCNC2)n1 (centres unmarked) [NCGC00434832-01] | 7.5
Cc1ccc(Cl)cc1N1CCN(C(=O)c2ccc3c(c2)N(Cc2ccccc2F)C(=O)c2ccccc2[S+]3(=O)[O-])CC1 [NCGC00109582-01] | 5.31
CCN(CC)CCCNC(=O)c1nn(-c2ccc(OC)c(Cl)c2)c(=O)c2c1c1ccccc1n2C [NCGC00108872-01] | 10.6
Fc1ccc(N2CCN(Cc3cccn3-c3nnc(N4CCN(C5CCCCC5)CC4)s3)CC2)cc1 [NCGC00127052-01] | 11.9
CCC1=C(C(=O)OC)C(c2cccc(F)c2)N2C(CC(=O)NCCc3cccs3)=CSC2=N1 (centres unmarked) [NCGC00473313-01] | 9.44
CCCCCCC(O)(c1ccc(OC)cc1)C(CN1CCOCC1)c1ccccc1 (centres unmarked) [MLS001198921-01] | 4.22
COc1ccccc1CN1CCC(CNC(=O)c2cnn(-c3cccc(Cl)c3)c2C2CCN(C(=O)OC(C)(C)C)CC2)CC1 [NCGC00126858-01] | 7.5
CC(=O)C1=C(c2ccc(Cl)cc2)N(C(C)=O)n2c(nnc2C2CCCCC2)S1 [NCGC00137192-01] | 4.73
COc1ccc(N2CCN(C(c3cc4ccc(C)cc4nc3O)c3nnnn3C3CCCC3)CC2)cc1 (centres unmarked) [MLS000077379-01] | 6.68
Cc1cc(C)c(/C=C/c2onc(C)c2[S+](=O)([O-])N2CCC(C(=O)Nc3ccc(Cl)c(C(F)(F)F)c3)CC2)c(C)c1 [NCGC00132732-01] | 10.6
Cc1ccccc1CN1C[C@@H]2C[C@@H](c3c[nH]nc3-c3ccccc3)N3CCC[C@@]23C1=O [MLS000735381-01] | 15
COc1cc2nc(NCCC(C)C)n3nc(-c4ccccc4)nc3c2cc1OC [NCGC00112851-01] | 0.422
O=C(CC1C(=O)N(Cc2ccccc2)C(=S)N1CCN1CCOCC1)Nc1ccc(F)cc1 (centres unmarked) [MLS000672078-01] | 5.31
COc1cccc(Nc2ccc3c(n2)C(C)(C(=O)N2CCCC2)CN(C)C3)c1 (centres unmarked) [NCGC00414569-01] | 17.2
COC(=O)c1ccc2nc(C)cc(Nc3ccc(O)cc3)c2c1 [NCGC00099848-01] | 9.44
CN1CCCC1CCNS(=O)(=O)c1ccc(Br)cc1 (centres unmarked) [MLS000549971-01] | 5.96
COc1ccc(C(O)(CCC(C)C)C(CN2CCOCC2)c2ccc(Cl)cc2)cc1 (centres unmarked) [MLS001200330-01] | 6.68
COc1cc(F)ccc1CNCc1cccnc1N1CCOCC1 [NCGC00425822-01] | 10.6
Cc1ccc(NC(=O)N(Cc2ccc3c(c2)OCO3)Cc2cc3cc4c(cc3[nH]c2=O)OCCO4)cc1 [MLS000033889-01] | 6.68
COc1ccc(-c2nc3sc(CCNC(=O)c4ccc(C(C)(C)C)cc4)c(C)n3n2)cc1 [NCGC00137079-01] | 2.11
CN(C)CCNC(=O)c1ccc2c(c1)N(Cc1c(F)cccc1Cl)C(=O)c1ccccc1S2 [NCGC00108148-01] | 2.11

SMILES | AC50 [µM]
CCO[C@H]1OC(C(=O)N2CCN(Cc3ccc4c(c3)OCO4)CC2)=C[C@@H](c2cn(C(C)=O)c3ccccc23)[C@@H]1CCCO [MLS000834466-01] | 8.41
Cc1ccc(Oc2c(C(F)(F)F)oc3c(CN4CCC(C)CC4)c(O)ccc3c2=O)cc1 [NCGC00101480-01] | 1.68
O=C(c1cccs1)N1CCC(O)(c2ccccc2)[C@H](N2CCCC2)C1 (some centres unmarked) [NCGC00442580-01] | 9.44
COc1cccc(C2=C(C(C)=O)Sc3nnc(C4CCCCC4)n3N2C(C)=O)c1 [NCGC00137294-01] | 4.73
CC1CCc2cc(F)ccc2N1C(=O)CSc1nnc2c(n1)[nH]c1ccc(F)cc12 (centres unmarked) [MLS000556689-01] | 8.41
C=CCOC(=O)Nc1nc2c(s1)C[C@@H]1[C@](C)(CO)[C@H](O)CC[C@@]1(C)[C@@H]2CC(=O)NC1CCCCC1 [NCGC00395650-01] | 3.76
COc1ccc(-c2cc3ccc(O)c(CN4CCCC(C)C4)c3oc2=O)cc1 (centres unmarked) [NCGC00134281-01] | 2.37
Cc1cccn2c(=O)c3cc(C(=O)NC(C)c4ccccc4)c(=N)n(CCOCCO)c3nc12 (centres unmarked) [NCGC00100488-01] | 10.6
COC(=O)C1=C(c2ccc(OC(F)(F)F)cc2)C[C@@H]2CC[C@H]1N2C(=O)NCc1cccc2ccccc12 [MLS002302720-01] | 3.35
Cc1cc(C)c(S(=O)(=O)n2ccc(-c3ccc(OCCN(C)c4ccccn4)cc3)n2)c(C)c1 [MLS000331310-01] | 7.5
CC(=O)C1=C(c2ccc(Br)cc2)N(C(C)=O)n2c(nnc2C2CCCCC2)S1 [NCGC00137196-01] | 2.99
O=C(Nc1ccc2n(c1=O)C[C@H]1C[C@@H]2CN(Cc2ccc(F)cc2)C1)c1cccs1 [NCGC00395674-01] | 15.3
CC1CCCN(Cc2c(O)ccc3c(=O)c(Oc4ccc(C(C)(C)C)cc4)c(C(F)(F)F)oc23)C1 (centres unmarked) [NCGC00100587-01] | 0.299
O=C(Nc1ccccc1)[C@H]1O[C@H](CCN2CCN(c3ccc(F)cc3)CC2)CC[C@@H]1O [NCGC00391966-01] | 10.9
COc1ccccc1N1CCN(C(=O)c2ccc3c(c2)N(Cc2cc(C)ccc2C)C(=O)c2ccccc2[S+]3(=O)[O-])CC1 [NCGC00109735-01] | 9.44
O=C(NCc1ccco1)c1cc(-c2ccncc2)nc2ccccc12 [MLS000046192-01] | 5.96
CCOC(=O)c1c(CN2CCCCC2)n(C)c2cc(Br)c(O)cc12 [MLS000523143-01] | 7.5
C#CCNC(=O)C[C@@H]1c2nc(NC(=O)OCC=C)sc2C[C@@H]2[C@](C)(CO)[C@H](O)CC[C@]21C [NCGC00391491-01] | 15
COC(=O)[C@@H]1Cc2c([nH]c3ccccc23)[C@H]2C[C@H](N3CCCCC3)C[C@@H](c3ccccc3F)N21 [NCGC00421326-01] | 5.96
O=C(Nc1nccs1)C1c2ccccc2C(=O)N(C2CCCC2)C12CCCC2 (centres unmarked) [NCGC00423502-01] | 4.22
COc1ccc(-c2c[nH]c([C@@H]3COCCN3Cc3ccccc3O)n2)cc1 [NCGC00394307-01] | 17.2
CCC1=C(C(=O)OC)C(c2ccccc2OC)N2C(CC(=O)NCC3CCCO3)=CSC2=N1 (centres unmarked) [NCGC00473341-01] | 15
Cc1ccccc1NC(=O)Nc1ccc2nc(N3CCN(C)CC3)cc(C)c2c1 [NCGC00126513-01] | 1.5
Cc1cc(N(C)Cc2ccccc2)nc2cc(O)ccc12 [MLS001199318-01] | 2.37
